Source: patent publication US7988944B2, “Peroxide decomposition catalyst” (Sumitomo Chemical Company, Limited, priority 2005, dated 2011)

How the values were obtained:
[1] = Hydrogen peroxide decomposition test in the presence of poly(sodium 4-styrenesulfonate); details: 80° C.; for V(O2), generated oxygen volume: 20 minutes, pH4.0 tartrate buffer/ethylene glycol, 2.28 mmol H2O2, blank corrected, 0° C. and 101325 Pa; for N(O2), mole number of oxygen molecule generated per 20 minutes: oxygen regarded as ideal gas
Procedure: To a mixture of 8.41 μmol (per one metal atom) of a catalyst and 21.1 mg of poly(sodium 4-styrenesulfonate) (product commercially available from Aldrich, weight average molecular weight: about 70,000) are added 1.00 ml of a tartaric acid/sodium tartrate buffer (pH4.0) and 1.00 ml of ethylene glycol. After this catalyst mixture is stirred at 80° C. for 5 minutes, 0.20 ml of an 11.4 mol/l aqueous hydrogen peroxide solution is added, and the mixture is stirred at 80° C. for 20 minutes. A volume of oxygen generated thereupon is measured with a gas burette, and an amount of decomposed hydrogen peroxide is calculated. Thereafter, this reaction solution is diluted and filtrated, and the filtrate is measured by gel permeation chromatography (GPC), thereby, a weight average molecular weight of poly(sodium 4-styrenesulfonate) after a test is obtained. The GPC analysis condition will be shown below. Column: TSKgel α-M (13 μm, 7.8 mmφ×30 cm) manufactured by Tosoh Corporation, column temperature: 40° C., mobile phase: 50 mmol/l aqueous ammonium acetate solution: CH3CN=7:3 (v/v), flow rate: 0.6 ml/min, detector: RI, injection amount: 50 μl. A weight average molecular weight was obtained as a value in terms of polyethylene oxide. The A value is obtained by the (equation 1), and the B value is obtained by the (equation 2).
Mn-bbpr (4.90 mg, 8.41 μmol (per one metal atom)), and poly(sodium 4-sutyrenesulfonate)(21.1 mg (product commercially available from Aldrich, weight average molecular weight: about 70,000)) were weighed in a two-necked flask (25 ml), and a tartaric acid/sodium tartrate buffer (1.00 ml (prepared from 0.20 mol/l tartaric acid aqueous solution and 0.10 mol/l sodium tartrate aqueous solution, pH4.0)) and ethylene glycol (1.00 ml) as a solvent were added thereto, followed by stirring. This was used as a catalyst mixed solution.
Septum was attached to one of inlets of the two-necked flask containing this catalyst mixed solution, and the other inlet was collected to a gas burette. This flask was stirred at 80° C. for 5 minutes, a hydrogen peroxide aqueous solution (11.4 mol/l, 0.20 ml (2.28 mmol)) was added via a syringe, and a hydrogen peroxide decomposition reaction was performed at 80° C. for 20 minutes. Generated oxygen was measured with a gas burette, and decomposed hydrogen peroxide was quantitated. An amount of generated oxygen was corrected based on the following blank test. Thereafter, the reaction solution was diluted with a water/acetonitrile mixed solution (water:acetonitrile=7:3 (v/v)) to a solution amount of 10.0 ml, and this solution was filtered with a syringe filter. This filtrate was GPC-measured, and a weight average molecular weight of poly (sodium 4-sutyrenesulfonate) after a test was obtained.
Poly(sodium 4-styrenesulfonate) after the hydrogen peroxide decomposition test was GPC-analyzed. The analyzing conditions are shown below. Column: TSKgel α-M (13 μm, 7.8 mmφ×30 cm) manufactured by Tosoh Corporation, column temperature: 40° C., mobile phase: 50 mmol/l ammonium acetate aqueous solution: CH3CN=7:3 (v/v), flow rate: 0.6 ml/min, detector: RI, in injection amount: 50 μl. A weight average molecular weight was obtained as a value in terms of polyethylene oxide.
An amount of decomposed hydrogen peroxide was obtained from a volume of oxygen generated in the hydrogen peroxide decomposition test.

[2] = Solubility test of catalyst in DMF; assay type: physicochemical; details: for Weight of peroxide decomposition catalyst residue which remained undissolved in DMF: about 20 mg catalyst, DMF 5.00 ml in total, residue on filter paper dried and weighed; for Solubility: catalyst 20.0±0.1 mg in 5.0 ml DMF, equation 3; for solubility (in words): from Table 1, DMF
Procedure: Herein, as an index of solubility in a peroxide decomposition catalyst, solubility of a peroxide decomposition catalyst (20.0±0.1 mg) in a constant amount (5.0 ml) of dimethylformamide (hereinafter abbreviated as DMF) can be used. The solubility as used herein is represented by the following (equation 3).
First, a filter paper (No 5B φ21 m/m) for Kiriyama funnel was dried (100° C., under 200 pa reduced pressure, 6 h), and this was weighed. Then, a peroxide decomposition catalyst (20.0±0.1 mg) and DMF (2.00 ml) were weighed in a 8 ml glass sample tube containing a stirrer, and this was stirred with a magnetic stirrer for 5 minutes. This mixture was transferred with a 2 ml pipette to a glass Kiriyama funnel (φ21 mm) in which the dried filter paper was spread, and this was suction-filtered. The sample tube, the stirrer and the pipette which were used, were washed with DMF several times (total amount 3.00 ml), and the attached catalyst and DMF washing solution were transferred to the Kiriyama funnel, and these were suction-filtered together. Thereafter, the residue on the filter paper, and the filter paper together with the Kiriyama funnel were dried (100° C., under 200 pa reduced pressure, 24 h) in a vacuum oven. After drying, the filter paper, and the residue on the filter paper were weighed, and a dry filter paper weight before filtration was subtracted from this weight to obtain a weight of the peroxide decomposition catalyst residue which remained undissolved in DMF. From this, solubility indicated by the (equation 3) was calculated.

SMILES | V(O2), generated oxygen volume [1] [mL] | N(O2), mole number of oxygen molecule generated per 20 minutes [1] [mmol] | Weight of peroxide decomposition catalyst residue which remained undissolved in DMF [2] [mg] | Solubility [2] [%] | solubility (in words) [2]
[Cu+2].c1ccc2c(c1)-c1nc-2nc2[n-]c(nc3nc(nc4[n-]c(n1)c1ccccc41)-c1ccccc1-3)c1ccccc21 [Copper phthalocyanine, copper phthalocyanine] | 0.00 | 0.00 | 17.3 | 13.1 | low solubility
[Co+2].c1ccc2c(c1)-c1nc-2nc2[n-]c(nc3nc(nc4[n-]c(n1)c1ccccc41)-c1ccccc1-3)c1ccccc21 [Cobalt phthalocyanine, cobalt phthalocyanine] | 4.9 | 0.219 | 17.5 | 12.9 | low solubility
CC(C)(C)c1ccc2c(c1)C1=Nc3c4cc(C(C)(C)C)ccc4c4[n]3[Fe][n]3c(c5ccc(C(C)(C)C)cc5c3=NC3=NC(=N4)c4cc(C(C)(C)C)ccc43)=NC2=N1 [Fe-pcy (^tBu)] | 1.40 | 0.0625 | 0.03 | 99.8 | high solubility
O.O.[Na+].[Na+].[O]=[W](=[O])([O-])[O-] [Sodium tungstate dihydrate] |  |  | 16.5 | 17.8 | low solubility
[Fe+2].c1ccc2c(c1)-c1nc-2nc2[n-]c(nc3nc(nc4[n-]c(n1)c1ccccc41)-c1ccccc1-3)c1ccccc21 [Iron phthalocyanine, iron phthalocyanine] | 14.33 | 0.64 | 17.9 | 11.0 | low solubility
